Numbers after ± are expanded uncertainties.
Columns and labels:
[1] = 323.15 K; for mass density / viscosity: 101.33 kPa, Liquid; for viscosity: Capillary tube (Ostwald / Ubbelohde) method
[2] = xn = mol fraction of the nth substance listed; conditions: 323.15 K; for viscosity / mass density: 101 kPa; for viscosity: Capillary tube (Ostwald / Ubbelohde) method

CCCCOC(C)=O [butyl ethanoate]
Conditions	surface tension liquid-gas [mN/m]
[1], Ring tensiometer	22.12 ± 0.06

[1]
Conditions	mass density [kg/m3]	viscosity [mPa·s]
–	849.75 ± 0.4	0.502 ± 0.004

CCCCOC(C)=O [butyl ethanoate] + CCCO
[2], Liquid
Conditions	mass density [kg/m3]	viscosity [mPa·s]
x1 = 0.1	790.07 ± 0.48	0.879 ± 0.006
x1 = 0.2	799.51 ± 0.47	0.747 ± 0.005
x1 = 0.3	807.87 ± 0.46	0.662 ± 0.005
x1 = 0.4	815.42 ± 0.45	0.604 ± 0.004
x1 = 0.5	822.21 ± 0.44	0.566 ± 0.004
x1 = 0.6	828.46 ± 0.43	0.538 ± 0.004
x1 = 0.7	834.3 ± 0.42	0.521 ± 0.004
x1 = 0.8	839.71 ± 0.41	0.508 ± 0.004
x1 = 0.9	844.84 ± 0.4	0.502 ± 0.004

[2], Liquid, Ring tensiometer
Conditions	surface tension liquid-gas [mN/m]
x1 = 0.1	21.56 ± 0.33
x1 = 0.2	21.72 ± 0.33
x1 = 0.3	21.84 ± 0.34
x1 = 0.4	21.97 ± 0.34
x1 = 0.5	22.05 ± 0.34
x1 = 0.6	22.12 ± 0.34
x1 = 0.7	22.17 ± 0.34
x1 = 0.8	22.2 ± 0.34
x1 = 0.9	22.18 ± 0.34

CCCCOC(C)=O [butyl ethanoate] + O
[2]
Conditions	interfacial tension [mN/m]	mass density [kg/m3]	surface tension liquid-gas [mN/m]	viscosity [mPa·s]
Liquid mixture 1, Ring tensiometer, x2 = 0.9998	14.2 ± 0.3	–	–	–
Liquid mixture 2, Ring tensiometer, x2 = 0.1305	–	–	21.74 ± 0.43	–
Liquid, x2 = 0.02	–	850.18 ± 0.4	–	0.503 ± 0.004
Liquid, x2 = 0.04	–	850.62 ± 0.39	–	0.504 ± 0.004
Liquid, x2 = 0.06	–	851.07 ± 0.39	–	0.506 ± 0.004
Liquid, x2 = 0.08	–	851.57 ± 0.39	–	0.507 ± 0.004

[2], Liquid, Ring tensiometer
Conditions	surface tension liquid-gas [mN/m]
x2 = 0.02	22.14 ± 0.34
x2 = 0.04	22.17 ± 0.34
x2 = 0.06	22.2 ± 0.34
x2 = 0.08	22.25 ± 0.34

CCCO [propan-1-ol]
Conditions	surface tension liquid-gas [mN/m]
[1], Ring tensiometer	21.36 ± 0.06

[1]
Conditions	mass density [kg/m3]	viscosity [mPa·s]
–	779.3 ± 0.51	1.115 ± 0.007

CCCO [propan-1-ol] + O
[2], Liquid
Conditions	mass density [kg/m3]	viscosity [mPa·s]
x2 = 0.05	782.94 ± 0.49	1.121 ± 0.007
x2 = 0.1	786.61 ± 0.49	1.127 ± 0.007
x2 = 0.2	794.62 ± 0.47	1.15 ± 0.007
x2 = 0.3	803.64 ± 0.45	1.18 ± 0.008
x2 = 0.4	814.4 ± 0.43	1.219 ± 0.008
x2 = 0.5	827.68 ± 0.41	1.26 ± 0.008
x2 = 0.6	844.41 ± 0.38	1.291 ± 0.008
x2 = 0.7	865.87 ± 0.35	1.305 ± 0.008
x2 = 0.8	894.61 ± 0.31	1.256 ± 0.008
x2 = 0.9	935.04 ± 0.25	1.036 ± 0.006
x2 = 0.95	959.71 ± 0.22	0.827 ± 0.005

[2], Liquid, Ring tensiometer
Conditions	surface tension liquid-gas [mN/m]
x2 = 0.05	21.55 ± 0.33
x2 = 0.1	21.68 ± 0.33
x2 = 0.2	21.93 ± 0.34
x2 = 0.3	22.29 ± 0.34
x2 = 0.4	22.68 ± 0.34
x2 = 0.5	23.06 ± 0.35
x2 = 0.6	23.42 ± 0.35
x2 = 0.7	23.65 ± 0.35
x2 = 0.8	24.12 ± 0.36
x2 = 0.9	25.27 ± 0.37
x2 = 0.92	26.37 ± 0.39
x2 = 0.95	29.58 ± 0.43
x2 = 0.98	44.44 ± 0.6

O [water]
Conditions	surface tension liquid-gas [mN/m]
[1], ring detachment method	68.38 ± 0.04
